Data on 27 compounds can be found in US20220009914A1, “Analogs of Nitrofuran Antibiotics to Combat Resistance” (The Trustees of Indiana University, priority 2020, published 2022).

The nature of data set [1]: in vitro. The settings on record: human. The method, then:
(§1) Evaluating compound effects on the viability of human colon and small intestine cells. […] Evaluating compound effects on the viability of human colon and small intestine cells. Evaluation of compound cytotoxicities to FHC colon and FHs 74 Int small intestine cells were performed using Alamar Blue-based viability assays. […] FHs 74 Int cells were maintained in Hybri-care medium (ATCC 46-X) supplemented with 30 ng/mL recombinant epidermal growth factor (EGF) and 10% FBS (Midwest Scientific, USDAFBS).

A short description of data set [2]: in vitro. The settings on record: human. The method, then: as §1
The source holds these as a separate data set.

Data set [3] concerns FHs 74 Int small intestine cells. In words: in vitro. The settings on record: for CC50: human, 48 h. The method, then:
as §1

For the next data set, the system named is FHC colon cells. In words: in vitro. The settings on record: for CC50: human, 48 h. The method, then: as §1
Data set [4] concerns E. coli and the ESKAPE bacteria. In words: bacterial proliferation assays, whole panel (results in words). The data set is classed as cell-based. The method, then:
All compounds were evaluated for inhibiting the proliferation of E. coli and each of the ESKAPE bacteria. Results presented represent the averages of EC50 values obtained from at least four replicates. Evaluating compounds for inhibition of bacterial cell proliferation.
Growth Media: E. coli were grown with LB medium and all ESKAPE bacteria were grown in Brain Heart Infusion (BHI) medium (Becton, Dickinson and Company), with all liquid cultures supplemented with 25 mg/L Ca^2+ and 12.5 mg/L Mg^2+ to mimic physiological free concentrations of these cations. A 10 mg/mL Ca^2+ stock solution was prepared by dissolving 1.84 g of CaCl2.2H2O in 50 mL of deionized water, and a 10 mg/mL Mg^2+ stock solution was prepared by dissolving 4.18 g of MgCl2.6H2O in 50 mL deionized water—filter sterilized using 0.2 μm cellulose-acetate filters. 2.5 mL of the sterile 10 mg/mL Ca^2+ stock and 1.25 mL of the sterile 10 mg/mL Mg^2+ stock solutions were added per 1 L of autoclaved LB or BHI media to obtain 25 mg/L Ca^2+ and 12.5 mg/L Mg^2+ ions, respectively.
General Assay Protocol: Stock bacterial cultures were streaked onto LB or BHI agar plates and grown overnight at 37° C. Fresh aliquots of cation supplemented media were inoculated with single bacterial colonies and the cultures were grown overnight at 37° C. with shaking (240 rpm). […] The cultures were then diluted into fresh media to achieve final OD600 readings of 0.017. […] A second set of baseline control plates were prepared analogously, but without any bacteria added, to correct for possible compound absorbance and/or precipitation. […] Plates were then read at 600 nm using a Molecular Devices SpectraMax Plus384 microplate reader. […]
Evaluating analogs for inhibiting the growth of E. coli and the ESKAPE bacteria. […] After addition of compounds to cultures, the plates were sealed with Breathe-Easy gas permeable membranes and allowed to grow to mid-log phase (OD600˜0.4-0.6), whereupon final OD600 readings were taken to assess for bacterial growth and inhibition.

[5] abbreviates: E. coli and the ESKAPE pathogens.

SMILES strings stand for the structures.

Regarding `COc1ccc(C(=O)N/N=C/c2ccccc2)cc1` [Compound 37, N′-benzylidene-4-methoxybenzohydrazide], the CC50 at 48 h in “in vitro [1]” and in the data set “in vitro [2]” was over 100 µM in each case.
As for `CN(C)c1ccc(C(=O)N/N=C/c2ccc([N+](=O)[O-])o2)cc1` [Compound 21, 4-(dimethylamino)-N′-((5-nitrofuran-2-yl)methylene)benzohydrazide], in data set [3], the “SI (CC50/EC50) Intestine” value was determined as 9.3 and the CC50 is 93 µM. In the data set with FHC colon cells, the “SI (CC50/EC50) Colon” value was over 10 and the CC50 is over 100 µM. In data set [4] (Gram-positive E. faecium and S. aureus), the “antibacterial efficacy in words” value was “less effective (or inactive)”.
For `O=C(N/N=C/c1ccc([N+](=O)[O-])o1)c1ccncc1` [Compound 19, N′-((5-nitrofuran-2-yl)methylene)isonicotinohydrazide], in data set [3], the “SI (CC50/EC50) Intestine” value amounted to 38 and the CC50 turned out to be 90 µM. For the same compound, in the data set on FHC colon cells, the “SI (CC50/EC50) Colon” value was determined as 26 and the CC50 stood at 61 µM.
On to `COc1ccc(C(=O)N/N=C/c2cccc3ccccc23)cc1` [Compound 33, 4-methoxy-N′-(naphthalen-1-ylmethylene)benzohydrazide], for which the CC50 at 48 h in the data set “in vitro [1]” and in “in vitro [2]” was over 100 µM each time.
Take `COc1ccc(C(=O)N/N=C/c2ccc([N+](=O)[O-])o2)cc1` [Compound 20, 4-methoxy-N′-((5-nitrofuran-2-yl)methylene)benzohydrazide]: in data set [3], the “SI (CC50/EC50) Intestine” value is given as 40, the “cytotoxicity to human cells in words” value is reported as “low to no cytotoxicity” and the CC50 worked out at 75 µM. Besides, in the data set on FHC colon cells, the “SI (CC50/EC50) Colon” value was over 53 and the CC50 was over 100 µM.
As to `O=C(N/N=C/c1ccc([N+](=O)[O-])o1)c1ccc(NS(=O)(=O)c2ccc(Br)cc2)cc1` [Compound 27, 4-bromo-N-(4-(2-((5-nitrofuran-2-yl)methylene)hydrazine-1-carbonyl)phenyl)benzenesulfonamide], the values for the CC50 at 48 h in “in vitro [1]” and in the data set “in vitro [2]” were over 100 µM and 90 µM, respectively.
On the same counts, the results for `COc1ccc(C(=O)N/N=C/c2cccc3ncccc23)cc1` [Compound 31, 4-methoxy-N′-(quinolin-5-ylmethylene)benzohydrazide] are over 100 µM and over 100 µM.
For the compound `O=C(N/N=C/c1ccc(O)c2ncccc12)c1ccc(O)cc1` [Compound 7, 4-hydroxy-N′-((8-hydroxyquinolin-5-yl)methylene)benzohydrazide], the CC50 at 48 h is 67 µM in “in vitro [1]” and over 100 µM in the data set “in vitro [2]”.
Take `O=C(N/N=C/c1ccc([N+](=O)[O-])o1)c1ccccc1` [Compound 18, N′-((5-nitrofuran-2-yl)methylene)benzohydrazide]: in data set [3], the “SI (CC50/EC50) Intestine” value is 45 and the CC50 turned out to be 94 µM. In the data set on FHC colon cells, the “SI (CC50/EC50) Colon” value is recorded as over 48 and the CC50 was over 100 µM.
For the compound `O=Cc1ccc([N+](=O)[O-])o1` [Compound 41, reference compound], in data set [4] (setting [5]), the “antibacterial efficacy in words” value is reported as “potent inhibitors of nearly all the bacteria (excluding P. aeruginosa)”.
For `CCN(CC)S(=O)(=O)c1cccc(C(=O)N/N=C/c2ccc([N+](=O)[O-])o2)c1` [Compound 25, N,N-diethyl-3-(2-((5-nitrofuran-2-yl)methylene)hydrazine-1-carbonyl)benzenesulfonamide], the CC50 at 48 h in the data set “in vitro [1]” and in the data set “in vitro [2]” was over 100 µM throughout.
Consider `COc1ccc(C(=O)N/N=C/c2ccc(O)c3ccccc23)cc1` [Compound 29, N′-((4-hydroxynaphthalen-1-yl)methylene)-4-methoxybenzohydrazide], for which the CC50 at 48 h in “in vitro [1]” and in “in vitro [2]” was over 100 µM each time.
Regarding `O=C(N/N=C/c1cccc2ncccc12)c1ccccc1` [Compound 32, N′-(quinolin-5-ylmethylene)benzohydrazide], the CC50 at 48 h in the data set “in vitro [1]” and in “in vitro [2]” was over 100 µM throughout.
With `O=C(N/N=C/c1ccc([N+](=O)[O-])o1)c1ccc(NS(=O)(=O)c2cccs2)cc1` [Compound 26, N-(4-(2-((5-nitrofuran-2-yl)methylene)hydrazine-1-carbonyl)phenyl)thiophene-2-sulfonamide], the figures for the CC50 at 48 h in “in vitro [1]” and in “in vitro [2]” were 70 µM and over 100 µM, respectively.
For `O=C(N/N=C/c1ccc(O)c2ccccc12)c1ccccc1` [Compound 30, N′-((4-hydroxynaphthalen-1-yl)methylene)benzohydrazide], in that order: over 100 µM and over 100 µM.
On the same counts, the results for `O=C(N/N=C/c1cccc2ccccc12)c1ccccc1` [Compound 34, N′-(naphthalen-1-ylmethylene)benzohydrazide] are over 100 µM and over 100 µM.
For the compound `COc1ccc(C(=O)N/N=C/c2ccc(O)cc2)cc1` [Compound 35, N′-(4-hydroxybenzylidene)-4-methoxybenzohydrazide], the CC50 at 48 h in the data set “in vitro [1]” and in the data set “in vitro [2]” was over 100 µM each time.
In the case of `O=C(N/N=C/c1ccc(O)c2ncccc12)c1cccs1` [Compound 3, N′-((8-hydroxyquinolin-5-yl)methylene)thiophene-2-carbohydrazide], the CC50 at 48 h was 86 µM in “in vitro [1]” and 85 µM in the data set “in vitro [2]”.
As for `O=C(N/N=C/c1ccc(O)c2ncccc12)c1ccncc1` [Compound 6, N′-((8-hydroxyquinolin-5-yl)methylene)isonicotinohydrazide], the CC50 at 48 h in the data set “in vitro [1]” is 75 µM; in “in vitro [2]”, over 100 µM.
On to `O=Cc1ccc(O)c2ncccc12` [Compound 40, reference compound], for which, in data set [4] (setting [5]), the “antibacterial efficacy in words” value is reported as “potent inhibitors of nearly all the bacteria (excluding P. aeruginosa)”.
Regarding `CCOc1ccc(S(=O)(=O)Nc2ccc(C(=O)N/N=C/c3ccc([N+](=O)[O-])o3)cc2)cc1` [Compound 28, 4-ethoxy-N-(4-(2-((5-nitrofuran-2-yl)methylene)hydrazine-1-carbonyl)phenyl)benzenesulfonamide], the CC50 at 48 h in the data set “in vitro [1]” was over 100 µM; in the data set “in vitro [2]”, 85 µM.
For `COc1ccc(C(=O)N/N=C/c2ccco2)cc1` [Compound 39, N′-(furan-2-ylmethylene)-4-methoxybenzohydrazide], the CC50 at 48 h in the data set “in vitro [1]” and in “in vitro [2]” was over 100 µM in each case.
`O=C(N/N=C/c1ccccc1)c1ccccc1` [Compound 38, N′-benzylidenebenzohydrazide]: the CC50 at 48 h in “in vitro [1]” and in the data set “in vitro [2]” was over 100 µM in each case.
Consider `O=C(N/N=C/c1ccc([N+](=O)[O-])o1)c1cccs1` [Compound 16, N′-((5-nitrofuran-2-yl)methylene)thiophene-2-carbohydrazide], for which, in data set [3], the “SI (CC50/EC50) Intestine” value is on record as 168, the “cytotoxicity to human cells in words” value was “low to no cytotoxicity” and the CC50 was found to be 71 µM. Moreover, in the data set with FHC colon cells, the “SI (CC50/EC50) Colon” value is listed as 198 and the CC50 is 83 µM.
`O=C1CN(/N=C/c2ccc(O)c3ncccc23)C(=O)N1` [Compound 2, 1-(((8-hydroxyquinolin-5-yl)methylene)amino)imidazolidine-2,4-dione]: the CC50 at 48 h in “in vitro [1]” and in the data set “in vitro [2]” was over 100 µM throughout.
Take `COc1ccc(C(=O)NN)cc1` [Compound 42, reference compound]: the CC50 at 48 h in the data set “in vitro [1]” and in the data set “in vitro [2]” was over 100 µM in each case.
As to `O=C(N/N=C/c1ccc(O)cc1)c1ccccc1` [Compound 36, N′-(4-hydroxybenzylidene)benzohydrazide], the CC50 at 48 h in the data set “in vitro [1]” and in “in vitro [2]” was over 100 µM in each case.
